Assays:
[1] = target: T1, Peroxisome proliferator-activated receptor gamma (Homo sapiens, UniProt P37231); assay: Inhibition of PPARgamma
T1 sequence (P37231 whole entry): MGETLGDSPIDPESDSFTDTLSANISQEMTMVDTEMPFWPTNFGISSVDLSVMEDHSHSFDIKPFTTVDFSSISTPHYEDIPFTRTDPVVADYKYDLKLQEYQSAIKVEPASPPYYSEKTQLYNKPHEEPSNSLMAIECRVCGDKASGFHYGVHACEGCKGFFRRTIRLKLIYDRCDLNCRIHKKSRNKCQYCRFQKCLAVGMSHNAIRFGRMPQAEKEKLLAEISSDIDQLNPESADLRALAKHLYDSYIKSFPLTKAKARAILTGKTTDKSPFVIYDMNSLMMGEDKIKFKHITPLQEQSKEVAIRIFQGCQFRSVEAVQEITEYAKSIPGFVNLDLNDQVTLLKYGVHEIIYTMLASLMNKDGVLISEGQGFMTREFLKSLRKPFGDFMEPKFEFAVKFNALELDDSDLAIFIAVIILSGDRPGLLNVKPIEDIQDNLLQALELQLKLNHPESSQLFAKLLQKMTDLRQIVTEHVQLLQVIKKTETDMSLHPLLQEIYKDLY

[2] = target: T2, Peroxisome proliferator-activated receptor alpha (Homo sapiens, UniProt Q07869); assay: Agonist activity at PPARalpha in HEK293 cells by GAL4 transactivation assay; assay type: functional, cell-based
T2 sequence (Q07869 whole entry): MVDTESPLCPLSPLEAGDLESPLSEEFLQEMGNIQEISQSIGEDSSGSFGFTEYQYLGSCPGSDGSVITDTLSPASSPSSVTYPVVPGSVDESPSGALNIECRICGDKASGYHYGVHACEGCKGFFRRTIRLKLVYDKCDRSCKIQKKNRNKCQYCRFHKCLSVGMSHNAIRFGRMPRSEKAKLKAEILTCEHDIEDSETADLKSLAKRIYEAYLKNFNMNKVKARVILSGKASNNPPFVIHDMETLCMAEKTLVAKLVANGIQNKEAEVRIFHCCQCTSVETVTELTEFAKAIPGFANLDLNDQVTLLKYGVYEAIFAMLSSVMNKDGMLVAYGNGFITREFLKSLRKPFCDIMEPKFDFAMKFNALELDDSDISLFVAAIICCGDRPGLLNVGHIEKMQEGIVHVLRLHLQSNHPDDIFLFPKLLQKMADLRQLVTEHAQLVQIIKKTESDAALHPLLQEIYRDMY

[3] = target: T2, Peroxisome proliferator-activated receptor alpha
[4] = target: T1, Peroxisome proliferator-activated receptor gamma
Description: Agonist activity at PPARgamma in HEK293 cells by GAL4 transactivation assay

Cytochrome P450 2C9 = Cytochrome P450 2C9 (Homo sapiens, UniProt P11712); assay: Inhibition of CYP2C9; assay type: ADME
Cytochrome P450 3A4 [5] = target: T3, Cytochrome P450 3A4 (Homo sapiens, UniProt P08684); assay: Inhibition of CYP3A4 in presence of 7-benzyloxy-4-trifluoromethyl coumarin substrate; assay type: ADME
[6] = target: T4, Peroxisome proliferator-activated receptor alpha (Homo sapiens) (UniProt Q07869); assay: Agonist activity at PPARalpha in HEK293 cells at 1 uM by GAL4 transactivation assay relative to GW-2331; assay type: functional, cell-based
T4 sequence (whole entry): T2 sequence (Q07869 whole entry)

[7] = target: Voltage-gated inwardly rectifying potassium channel KCNH2 (Homo sapiens, UniProt Q12809); assay: Inhibition of human ERG by FLIPR assay
Cytochrome P450 3A4 [8] = target: T3, Cytochrome P450 3A4; assay: Inhibition of CYP3A4 in presence of 7-benzyloxyresorufin substrate; assay type: ADME
Mus musculus [9] = assay: Decrease in plasma glucose level in db/db mouse at 10 mg/kg/day, po qd after 14 days; assay type: functional; set-up: scale not given: the % may be the effect or the level left
[10] = Drug concentration in db/db mouse plasma at 10 mg/kg/day, po qd after 14 days; assay type: ADME, organism-based; set-up: route oral
Liver = assay: Drug concentration in db/db mouse liver at 10 mg/kg/day, po qd after 14 days; assay type: ADME, organism-based; set-up: route oral; conditions: in vivo, 336 h
Adipose tissue = assay: Drug concentration in db/db mouse adipose at 10 mg/kg/day, po qd after 14 days; assay type: ADME, organism-based; set-up: route oral; conditions: in vivo, 336 h
Mus musculus [11] = assay: Decrease in plasma triglyceride level in db/db mouse at 10 mg/kg/day, po qd after 14 days; assay type: functional; set-up: scale not given: the % may be the effect or the level left
Mus musculus [12] = assay: Decrease in plasma triglyceride level in db/db mouse at 10 mg/kg/day, po qd after 3 weeks; assay type: functional; set-up: scale not given: the % may be the effect or the level left
Cytochrome P450 2C19 = Cytochrome P450 2C19 (Homo sapiens, UniProt P33261); assay: Inhibition of CYP2C19; assay type: ADME
Cytochrome P450 2C19, sequence (P33261 whole entry): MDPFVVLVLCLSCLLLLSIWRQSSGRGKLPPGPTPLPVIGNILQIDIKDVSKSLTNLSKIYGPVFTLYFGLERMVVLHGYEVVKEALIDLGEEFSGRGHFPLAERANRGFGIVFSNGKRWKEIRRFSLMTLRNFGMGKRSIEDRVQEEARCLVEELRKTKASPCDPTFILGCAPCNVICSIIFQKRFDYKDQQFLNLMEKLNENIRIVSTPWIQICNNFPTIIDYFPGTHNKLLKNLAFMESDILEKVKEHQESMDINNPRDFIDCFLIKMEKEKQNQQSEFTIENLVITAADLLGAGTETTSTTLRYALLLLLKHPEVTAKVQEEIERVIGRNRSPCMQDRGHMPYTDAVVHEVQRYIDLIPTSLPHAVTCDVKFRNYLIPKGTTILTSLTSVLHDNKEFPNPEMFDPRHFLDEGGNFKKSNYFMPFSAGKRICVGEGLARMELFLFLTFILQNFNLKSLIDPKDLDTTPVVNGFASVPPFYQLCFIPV

T3 sequence (P08684 whole entry, the tested form may be a part): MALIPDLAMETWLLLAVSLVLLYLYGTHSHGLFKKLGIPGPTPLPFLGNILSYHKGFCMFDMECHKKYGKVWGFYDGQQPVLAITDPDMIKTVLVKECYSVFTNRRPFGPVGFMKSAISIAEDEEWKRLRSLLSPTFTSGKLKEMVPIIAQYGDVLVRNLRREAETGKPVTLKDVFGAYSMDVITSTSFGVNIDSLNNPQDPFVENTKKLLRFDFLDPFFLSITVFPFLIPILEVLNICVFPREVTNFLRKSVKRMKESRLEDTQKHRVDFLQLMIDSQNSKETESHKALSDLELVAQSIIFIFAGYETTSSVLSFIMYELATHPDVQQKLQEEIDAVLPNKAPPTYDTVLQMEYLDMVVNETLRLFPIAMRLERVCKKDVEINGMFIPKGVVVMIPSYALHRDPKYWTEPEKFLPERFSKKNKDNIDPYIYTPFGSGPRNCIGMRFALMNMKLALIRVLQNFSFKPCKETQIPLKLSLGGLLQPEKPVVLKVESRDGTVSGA
Cytochrome P450 2C9, sequence (P11712 whole entry): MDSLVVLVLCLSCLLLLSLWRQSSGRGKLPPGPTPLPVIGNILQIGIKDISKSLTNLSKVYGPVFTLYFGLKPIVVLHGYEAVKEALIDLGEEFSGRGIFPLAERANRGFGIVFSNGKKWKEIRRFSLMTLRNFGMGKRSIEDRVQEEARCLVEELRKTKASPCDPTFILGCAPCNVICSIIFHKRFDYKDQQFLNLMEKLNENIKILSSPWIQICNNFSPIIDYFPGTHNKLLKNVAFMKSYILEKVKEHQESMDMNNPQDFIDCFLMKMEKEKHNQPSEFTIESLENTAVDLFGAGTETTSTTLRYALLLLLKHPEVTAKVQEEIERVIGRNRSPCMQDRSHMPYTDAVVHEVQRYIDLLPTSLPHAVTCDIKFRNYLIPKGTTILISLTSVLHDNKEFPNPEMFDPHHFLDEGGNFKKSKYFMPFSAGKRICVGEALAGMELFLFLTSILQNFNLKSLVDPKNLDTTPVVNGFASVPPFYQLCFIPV
Voltage-gated inwardly rectifying potassium channel KCNH2, sequence (Q12809 whole entry): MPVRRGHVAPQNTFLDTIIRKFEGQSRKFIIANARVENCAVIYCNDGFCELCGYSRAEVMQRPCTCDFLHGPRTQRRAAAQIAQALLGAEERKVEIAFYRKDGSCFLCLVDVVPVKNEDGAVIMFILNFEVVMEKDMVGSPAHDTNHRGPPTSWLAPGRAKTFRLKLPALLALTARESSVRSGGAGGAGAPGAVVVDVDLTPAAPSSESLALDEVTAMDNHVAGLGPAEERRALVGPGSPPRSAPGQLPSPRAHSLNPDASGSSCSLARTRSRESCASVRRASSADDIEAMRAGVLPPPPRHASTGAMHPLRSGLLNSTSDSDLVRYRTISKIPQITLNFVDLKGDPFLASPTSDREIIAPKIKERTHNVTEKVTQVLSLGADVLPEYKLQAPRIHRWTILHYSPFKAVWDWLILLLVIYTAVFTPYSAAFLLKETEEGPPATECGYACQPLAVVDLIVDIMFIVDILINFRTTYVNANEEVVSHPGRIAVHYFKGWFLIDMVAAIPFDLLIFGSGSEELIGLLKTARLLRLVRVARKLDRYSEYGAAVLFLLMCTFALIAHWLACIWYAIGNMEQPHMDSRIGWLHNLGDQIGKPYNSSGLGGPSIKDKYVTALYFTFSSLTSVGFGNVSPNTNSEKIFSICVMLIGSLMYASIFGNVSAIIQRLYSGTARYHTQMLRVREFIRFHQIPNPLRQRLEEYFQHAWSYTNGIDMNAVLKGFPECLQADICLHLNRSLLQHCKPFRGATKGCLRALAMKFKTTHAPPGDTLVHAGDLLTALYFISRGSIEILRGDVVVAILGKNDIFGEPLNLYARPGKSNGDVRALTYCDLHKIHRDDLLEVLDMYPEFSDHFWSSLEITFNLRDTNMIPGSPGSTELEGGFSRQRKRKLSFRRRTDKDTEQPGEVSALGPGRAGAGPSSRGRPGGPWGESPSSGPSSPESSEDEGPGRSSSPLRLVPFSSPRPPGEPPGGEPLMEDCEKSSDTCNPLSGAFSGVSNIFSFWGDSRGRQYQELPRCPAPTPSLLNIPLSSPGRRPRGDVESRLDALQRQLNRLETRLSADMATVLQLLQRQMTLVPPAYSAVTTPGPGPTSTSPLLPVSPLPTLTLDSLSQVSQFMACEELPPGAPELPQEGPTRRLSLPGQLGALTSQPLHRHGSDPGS

Structure (SMILES) | IC50 [1] [nM] | EC50 [2] [nM] | IC50 [3] [nM] | EC50 [4] [nM] | IC50 (Cytochrome P450 2C9) [nM] | IC50 (Cytochrome P450 3A4 [5]) [nM] | Intrinsic activity [6] [%] | IC50 [7] [nM] | IC50 (Cytochrome P450 3A4 [8]) [nM] | Activity (Mus musculus [9]) [%] | concentration at 336 h [10] [nM] | Drug uptake (Liver) [nmol/g] | Drug uptake (Adipose tissue) [nmol/g] | Activity (Mus musculus [11]) [%] | Activity (Mus musculus [12]) [%] | IC50 (Cytochrome P450 2C19) [nM]
COc1ccc(N2C(=O)[C@H](Cc3ccc(OCCc4nc(-c5ccccc5)oc4C)cc3)[C@@H]2C(=O)O)cc1 | 3400 | > 7500 | > 15000 |  |  |  |  |  |  |  |  |  |  |  |  | 
COc1ccc(N2C(=O)[C@H](Cc3cccc(OCCc4nc(-c5ccccc5)oc4C)c3)[C@@H]2C(=O)O)cc1 | 1100 | > 7500 | > 15000 | 840 |  |  |  |  |  |  |  |  |  |  |  | 
COc1ccc(N2C(=O)[C@@H](Cc3ccc(OCCc4nc(-c5ccccc5)oc4C)cc3)[C@H]2C(=O)O)cc1 | 40 | 150 | 730 | 20 | 14000 | 33000 | > 90 | 54000 | 26000 |  |  |  |  |  |  | 
COc1ccc(N2C(=O)[C@@H](Cc3cccc(OCCc4nc(-c5ccccc5)oc4C)c3)[C@H]2C(=O)O)cc1 | 100 | 70 | 360 | 90 | 2200 | 50000 | > 90 |  | 830 | -43 | 2800 | 10.4 | 0.29 | 0 |  | 
Cc1oc(-c2ccccc2)nc1CCOc1cccc(CC2C(=O)N(c3ccc(F)cc3)C2C(=O)O)c1 (racemic) | 180 | 110 | 2400 | 30 |  |  | > 90 |  |  |  |  |  |  |  |  | 
Cc1oc(-c2ccccc2)nc1CCOc1cccc(C[C@H]2C(=O)N(c3ccc(C(C)(C)C)cc3)[C@H]2C(=O)O)c1 | 800 | 5400 | > 15000 | 410 | 670 | 20000 |  |  |  |  |  |  |  |  |  | 
Cc1oc(-c2ccccc2)nc1CCOc1ccc(C[C@H]2C(=O)N(c3ccc(C(C)(C)C)cc3)[C@H]2C(=O)O)cc1 | 4240 | 970 | > 15000 | 500 | 3000 | > 40000 |  |  | > 40000 |  |  |  |  |  |  | 
Cc1oc(-c2ccccc2)nc1CCOc1cccc(C[C@@H]2C(=O)N(c3ccc(C(C)(C)C)cc3)[C@@H]2C(=O)O)c1 | 40 | 40 | 80 | 120 | 230 | 17000 |  |  | 19000 | -17 | 870 | 7.4 |  | -52 | 61 | 
Cc1oc(-c2cccc(Cl)c2)nc1CCOc1cccc(C[C@@H]2C(=O)N(c3ccc(C(C)(C)C)cc3)[C@@H]2C(=O)O)c1 | 250 | 60 | 860 | 100 | 670 |  | > 90 |  | 20000 |  |  |  |  |  |  | 5300
Cc1oc(-c2ccccc2)nc1CCOc1cccc(CC2C(=O)N(c3ccc(Cl)cc3)C2C(=O)O)c1 (racemic) | 360 | 230 | 1400 | 130 |  |  | > 90 |  |  |  |  |  |  |  |  | 
COc1ccc(-c2nc(CCOc3cccc(C[C@@H]4C(=O)N(c5ccc(C(C)(C)C)cc5)[C@@H]4C(=O)O)c3)c(C)o2)cc1 | 220 | 8 | 460 | 40 |  |  | > 90 |  | 12000 |  |  |  |  |  |  | 
COc1cccc(-c2nc(CCOc3cccc(C[C@@H]4C(=O)N(c5ccc(C(C)(C)C)cc5)[C@@H]4C(=O)O)c3)c(C)o2)c1 | 110 | 40 | 520 | 40 | 650 |  | > 90 |  | 19000 |  |  |  |  |  |  | 8300
COc1ccc(OC(=O)N(CC(=O)O)Cc2ccc(OCCc3nc(-c4ccccc4)oc3C)cc2)cc1 [MURAGLITAZAR] |  |  |  |  |  |  |  |  |  | -54 | 103000 | 25 | 3 | -33 |  | 
Cc1oc(-c2ccc(Cl)cc2)nc1CCOc1cccc(C[C@@H]2C(=O)N(c3ccc(C(C)(C)C)cc3)[C@@H]2C(=O)O)c1 | 670 | 5 | 480 | 60 | 410 | 4700 | > 90 |  |  |  |  |  |  |  |  | 2800
CCCCCCCN(CCc1ccc(O[C@@](C)(CC)C(=O)O)cc1)C(=O)Nc1ccc(F)cc1F | 600 | 45 | 740 | 243 |  |  | > 90 |  |  |  |  |  |  |  |  | 
COc1ccc(N2C(=O)C(Cc3cccc(OCCc4nc(-c5ccccc5)oc4C)c3)C2C(=O)O)cn1 (racemic) | 230 | 90 | 1300 | 70 |  |  | > 90 |  |  |  |  |  |  |  |  | 
COc1ccc(N2C(=O)C(Cc3cccc(OCCc4nc(-c5ccccc5)oc4C)c3)C2C(=O)O)cc1 (racemic) | 160 | 140 | 690 | 180 |  |  | > 90 |  |  |  |  |  |  |  |  | 
Cc1oc(-c2ccccc2)nc1CCOc1ccc(C[C@@H]2C(=O)N(c3ccc(C(C)(C)C)cc3)[C@@H]2C(=O)O)cc1 | 110 | 10 | 790 | 4 | 2300 | > 40000 | > 90 |  | 28000 |  |  |  |  |  |  | 

Source: ChEMBL document CHEMBL1142250, “Discovery of azetidinone acids as conformationally-constrained dual PPARalpha/gamma agonists” (Bioorg Med Chem Lett, 2008)
